In patent US20240398805A1, “QUINAZOLINE DERIVED COMPOUNDS AS EGFR INHIBITORS AND THEIR USES THEREOF” (ACCUTAR BIOTECHNOLOGY INC., priority 2021, published 2024):

Experiments:
Assay type in all cases: cell-based
[1] = test system: HCC827-ASV cells (human EGFR exon 20 insertion mutant A769_D770insASV); assay: Cell growth inhibition (CellTiter-Glo, 3 days) in HCC827-ASV; conditions: 72 h, 3 days after administration
Method in brief: (§1)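 HCC827 cells lentivirally transduced with codon-optimized ASV or YVMA insertion mutants were seeded at 5000 cells/well in RPMI with 10% FBS and incubated overnight. Compound was added at various concentrations from a 10× stock in medium, with 3 days' incubation. Viability read by CellTiter-Glo luminescence.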

[2] = test system: HCC827-YVMA cells (human ERBB2 exon20 insertion mutant A775_G776ins YVMA); assay: Cell growth inhibition (CellTiter-Glo, 3 days) in HCC827-YVMA; conditions: 72 h, 3 days after administration
Method in brief: as §1

[3] = test system: HCC827-SVD cells (human EGFR exon 20 insertion mutant D770_N771 insSVD); assay: Cell growth inhibition (CellTiter-Glo, 3 days) in HCC827-SVD; conditions: 72 h, 3 days after administration
Method in brief: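 HCC827 cells carrying lentiviral codon-optimized EGFR D770_N771 insSVD, with endogenous EGFR knocked out by CRISPR (single clone), seeded at 5000 cells/well in RPMI with 10% FBS. Viability read by CellTiter-Glo luminescence.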

HCC827 cells = assay: Cell growth inhibition (CellTiter-Glo, 3 days) in HCC827; conditions: Homo sapiens, 72 h, 3 days after administration
Method in brief: (§2)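 Growth inhibition was scored by CellTiter-Glo luminescence after 3-day compound exposure at various concentrations. Cells were plated at 5000/well the day before treatment: A431 in DMEM and HCC827 in RPMI, each with 10% FBS.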

A431 cells = assay: Cell growth inhibition (CellTiter-Glo, 3 days) in A431; conditions: Homo sapiens, A-431, 72 h, 3 days after administration
Method in brief: as §2

| SMILES | GI50 [1] | GI50 [2] | GI50 [3] | GI50 (HCC827 cells) | GI50 (A431 cells) |
| --- | --- | --- | --- | --- | --- |
| C=CC(=O)N1CCC(Nc2cc3c(Nc4ccc(Oc5ccnc(N6CCO[C@@H](CO)C6)c5)cc4F)ncnc3cc2OC)CC1 [Example 124, (R)-1-(4-((4-((2-fluoro-4-((2-(2-(hydroxymethyl)morpholino)pyridin-4-yl)oxy)phenyl)amino)-7-methoxyquinazolin-6-yl)amino)piperidin-1-yl)prop-2-en-1-one] | 30 to 60 nM | 60 to 100 nM | 30 to 60 nM | 600 to 1000 nM | ≥ 1000 nM |
| C=CC(=O)N1CCC(Nc2cc3c(Nc4ccc(Oc5ccnc(N6CCO[C@H](CO)C6)c5)cc4F)ncnc3cc2OC)CC1 [Example 125, (S)-1-(4-((4-((2-fluoro-4-((2-(2-(hydroxymethyl)morpholino)pyridin-4-yl)oxy)phenyl)amino)-7-methoxyquinazolin-6-yl)amino)piperidin-1-yl)prop-2-en-1-one] | 100 to 300 nM | 100 to 300 nM | 300 to 600 nM | ≥ 1000 nM | ≥ 1000 nM |
| C=CC(=O)N1CCC(Nc2cc3c(Nc4ccc(Oc5ccnc(N6CCOC[C@H]6CO)c5)cc4F)ncnc3cc2OC)CC1 [Example 126, (R)-1-(4-((4-((2-fluoro-4-((2-(3-(hydroxymethyl)morpholino)pyridin-4-yl)oxy)phenyl)amino)-7-methoxyquinazolin-6-yl)amino)piperidin-1-yl)prop-2-en-1-one] | 60 to 100 nM | 100 to 300 nM | 100 to 300 nM | ≥ 1000 nM | ≥ 1000 nM |
| C=CC(=O)N1CCC(Nc2cc3c(Nc4ccc(Oc5ccnc(N6CCOC[C@@H]6CO)c5)cc4F)ncnc3cc2OC)CC1 [Example 127, (S)-1-(4-((4-((2-fluoro-4-((2-(3-(hydroxymethyl)morpholino)pyridin-4-yl)oxy)phenyl)amino)-7-methoxyquinazolin-6-yl)amino)piperidin-1-yl)prop-2-en-1-one] | 100 to 300 nM | 100 to 300 nM | 100 to 300 nM | 600 to 1000 nM | ≥ 1000 nM |
| C=CC(=O)N1CCC(Nc2cc3c(Nc4ccc(Oc5ccnc(N6CCC(C)(O)CC6)c5)cc4F)ncnc3cc2OC)CC1 [Example 128, 1-(4-((4-((2-fluoro-4-((2-(4-hydroxy-4-methylpiperidin-1-yl)pyridin-4-yl)oxy)phenyl)amino)-7-methoxyquinazolin-6-yl)amino)piperidin-1-yl)prop-2-en-1-one] | 100 to 300 nM | 100 to 300 nM | 60 to 100 nM | 300 to 600 nM | ≥ 1000 nM |
| C=CC(=O)N1CCC(Nc2cc3c(Nc4ccc(Oc5ccnc(N6CCC(C)(OC)CC6)c5)cc4F)ncnc3cc2OC)CC1 [Example 129, 1-(4-((4-((2-fluoro-4-((2-(4-methoxy-4-methylpiperidin-1-yl)pyridin-4-yl)oxy)phenyl)amino)-7-methoxyquinazolin-6-yl)amino)piperidin-1-yl)prop-2-en-1-one] | 30 to 60 nM | 60 to 100 nM | 60 to 100 nM | 300 to 600 nM | ≥ 1000 nM |
| C=CC(=O)N1CCC(Nc2cc3c(Nc4ccc(Oc5ccnc(N6CC7CCC(C6)O7)c5)cc4F)ncnc3cc2OC)CC1 [Example 130, 1-(4-((4-((4-((2-(8-oxa-3-azabicyclo[3.2.1]octan-3-yl)pyridin-4-yl)oxy)-2-fluorophenyl)amino)-7-methoxyquinazolin-6-yl)amino)piperidin-1-yl)prop-2-en-1-one] | 30 to 60 nM | 30 to 60 nM | 30 to 60 nM | 100 to 300 nM | 300 to 600 nM |
| C=CC(=O)N1CCC(Nc2cc3c(Nc4ccc(Oc5ccnc(N6C[C@@H]7C[C@H]6CO7)c5)cc4F)ncnc3cc2OC)CC1 [Example 131, 1-(4-((4-((4-((2-((1S,4S)-2-oxa-5-azabicyclo[2.2.1]heptan-5-yl)pyridin-4-yl)oxy)-2-fluorophenyl)amino)-7-methoxyquinazolin-6-yl)amino)piperidin-1-yl)prop-2-en-1-one] | 30 to 60 nM | 60 to 100 nM | 60 to 100 nM | 600 to 1000 nM | ≥ 1000 nM |
| C=CC(=O)N1CCC(Nc2cc3c(Nc4ccc(Oc5ccnc(N6CCO[C@@H](C)C6)c5)cc4F)ncnc3cc2OC)CC1 [Example 132, (S)-1-(4-((4-((2-fluoro-4-((2-(2-methylmorpholino)pyridin-4-yl)oxy)phenyl)amino)-7-methoxyquinazolin-6-yl)amino)piperidin-1-yl)prop-2-en-1-one] | < 30 nM | < 30 nM | < 30 nM | 100 to 300 nM | 600 to 1000 nM |
| C=CC(=O)N1CCC(Nc2cc3c(Nc4ccc(Oc5ccnc(N6CCO[C@H](C)C6)c5)cc4F)ncnc3cc2OC)CC1 [Example 133, (R)-1-(4-((4-((2-fluoro-4-((2-(2-methylmorpholino)pyridin-4-yl)oxy)phenyl)amino)-7-methoxyquinazolin-6-yl)amino)piperidin-1-yl)prop-2-en-1-one] | < 30 nM | < 30 nM | < 30 nM | 100 to 300 nM | 600 to 1000 nM |
| C=CC(=O)N1CCC(Nc2cc3c(Nc4ccc(Oc5ccnc(N6C[C@H]7C[C@@H]6CO7)c5)cc4F)ncnc3cc2OC)CC1 [Example 134, 1-(4-((4-((4-((2-((1R,4R)-2-oxa-5-azabicyclo[2.2.1]heptan-5-yl)pyridin-4-yl)oxy)-2-fluorophenyl)amino)-7-methoxyquinazolin-6-yl)amino)piperidin-1-yl)prop-2-en-1-one] | < 30 nM | 30 to 60 nM | 30 to 60 nM | 100 to 300 nM | 600 to 1000 nM |
| C=CC(=O)N1CCC(Nc2cc3c(Nc4ccc(Oc5ccnc(N6CCOC[C@@H]6C)c5)cc4F)ncnc3cc2OC)CC1 [Example 135, (S)-1-(4-((4-((2-fluoro-4-((2-(3-methylmorpholino)pyridin-4-yl)oxy)phenyl)amino)-7-methoxyquinazolin-6-yl)amino)piperidin-1-yl)prop-2-en-1-one] | < 30 nM | 30 to 60 nM | 60 to 100 nM | 300 to 600 nM | ≥ 1000 nM |
| C=CC(=O)N1CCC(Nc2cc3c(Nc4ccc(Oc5ccnc(N6C7CCC6COC7)c5)cc4F)ncnc3cc2OC)CC1 [Example 136, 1-(4-((4-((4-((2-(3-oxa-8-azabicyclo[3.2.1]octan-8-yl)pyridin-4-yl)oxy)-2-fluorophenyl)amino)-7-methoxyquinazolin-6-yl)amino)piperidin-1-yl)prop-2-en-1-one] | 30 to 60 nM | 30 to 60 nM | 30 to 60 nM | 300 to 600 nM | 600 to 1000 nM |
| C=CC(=O)N1CCC(Nc2cc3c(Nc4ccc(Oc5ccnc(N6CCOC[C@H]6C)c5)cc4F)ncnc3cc2OC)CC1 [Example 137, (R)-1-(4-((4-((2-fluoro-4-((2-(3-methylmorpholino)pyridin-4-yl)oxy)phenyl)amino)-7-methoxyquinazolin-6-yl)amino)piperidin-1-yl)prop-2-en-1-one] | 100 to 300 nM | 300 to 600 nM | 100 to 300 nM | ≥ 1000 nM | ≥ 1000 nM |
| C=CC(=O)N1CCC(Nc2cc3c(Nc4ccc(Oc5ccnc(N6CCOC(C)(C)C6)c5)cc4F)ncnc3cc2OC)CC1 [Example 138, 1-(4-((4-((4-((2-(2,2-dimethylmorpholino)pyridin-4-yl)oxy)-2-fluorophenyl)amino)-7-methoxyquinazolin-6-yl)amino)piperidin-1-yl)prop-2-en-1-one] | < 30 nM | < 30 nM | < 30 nM | 100 to 300 nM | ≥ 1000 nM |
| C=CC(=O)N1CCC(Nc2cc3c(Nc4ccc(Oc5ccnc(N6CC(O)C6)c5)cc4F)ncnc3cc2OC)CC1 [Example 139, 1-(4-((4-((2-fluoro-4-((2-(3-hydroxyazetidin-1-yl)pyridin-4-yl)oxy)phenyl)amino)-7-methoxyquinazolin-6-yl)amino)piperidin-1-yl)prop-2-en-1-one] | 60 to 100 nM | 100 to 300 nM | 100 to 300 nM | 100 to 300 nM | 300 to 600 nM |
| C=CC(=O)N1CCC(Nc2cc3c(Nc4ccc(Oc5ccnc(N6CC(CO)C6)c5)cc4F)ncnc3cc2OC)CC1 [Example 140, 1-(4-((4-((2-fluoro-4-((2-(3-(hydroxymethyl)azetidin-1-yl)pyridin-4-yl)oxy)phenyl)amino)-7-methoxyquinazolin-6-yl)amino)piperidin-1-yl)prop-2-en-1-one] | 100 to 300 nM | 300 to 600 nM | 100 to 300 nM | 600 to 1000 nM | 600 to 1000 nM |
| C=CC(=O)N1CCC(Nc2cc3c(Nc4ccc(Oc5ccnc(N6CC(C#N)C6)c5)cc4F)ncnc3cc2OC)CC1 [Example 141, 1-(4-(4-((6-((1-acryloylpiperidin-4-yl)amino)-7-methoxyquinazolin-4-yl)amino)-3-fluorophenoxy)pyridin-2-yl)azetidine-3-carbonitrile] | < 30 nM | 30 to 60 nM | 30 to 60 nM | 100 to 300 nM | ≥ 1000 nM |
| C=CC(=O)N1CCC(Nc2cc3c(Nc4ccc(Oc5ccnc(N6CC(COC)C6)c5)cc4F)ncnc3cc2OC)CC1 [Example 142, 1-(4-((4-((2-fluoro-4-((2-(3-(methoxymethyl)azetidin-1-yl)pyridin-4-yl)oxy)phenyl)amino)-7-methoxyquinazolin-6-yl)amino)piperidin-1-yl)prop-2-en-1-one] | < 30 nM | < 30 nM | < 30 nM | 100 to 300 nM | ≥ 1000 nM |
